In patent US20170042936A1, “COMPOSITION FOR LOCAL AND CONTROLLED RELEASE OF DRUGS AND METHODS THEREOF” (INEB - INSTITUTO NACIONAL DE ENGENHARIA BIOMÉDICA, priority 2014, published 2017):
“Also recorded” adds a separate entry of the source.

How the values were obtained:
MC3T3-E1 cells [1] = assay: Metabolic activity of pre-osteoblasts (resazurin) in presence of released vancomycin; assay type: cell-based, mouse
Experimental: (§1) The pre-osteoblasts MC3T3-E1 cells, an osteoblastic cell line derived from mouse calvaria, were grown in alpha minimum essential medium (α-MEM, Gibco, Life Technologies, Grand Island, N.Y.), supplemented with 1% penicillinstreptomycin (Gibco) and 10% fetal bovine serum (FBS, Invitrogen, Carlsbad, Calif.). Cells were incubated in a humidified environment at 37° C. and 5% of CO2. Vancomycin adsorption on granules was performed as mentioned earlier. Granules were placed in 96-well plates, and cells were seeded using a density of 5×10^4 cells/mL. Cells were cultured for 21 days, and medium was changed three times a week. As control, cells were cultured on tissue culture polystyrene (TCPS) with the same conditions used for the granules. For each condition, six replicates were used for the resazurin assay.
In an embodiment, the metabolic activity was also performed. The nontoxic alamar blue (resazurin) dye was used to determine the metabolic activity of MC3T3-E1 cells. The blue nonfluorescent dye is metabolized by cells, converting it to a reduced pink fluorescence dye. Therefore, 10% (v/v) of resazurin was added to the medium and incubated for 4 h at 37° C. and 5% of CO2. Afterward, 100 μL was transferred into a black 96-well plate, and fluorescence was measured at 530 nm excitation and 590 nm emission wavelength with a fluorescence reader (SynergyMix, BioTek, Winooski, Vt.) using Gen5 1.09 Data Analysis Software. These measurements were made at 24 h and 4, 7, 14, and 21 days of culture.

MC3T3-E1 cells [2] = assay: Cell morphology on granules by SEM and confocal laser scanning microscopy; assay type: cell-based, mouse; conditions: in presence of vancomycin
Experimental: as §1
Granules with seeded cells were rinsed with PBS and fixer using 1.5% gluteraldehyde (v/v) (Agar) in 0.14 M sodium cacodyl-ate buffer (Merck, Kenilworth, N.J.) at RT for 30 min. The samples were washed twice with PBS and then dehydrated in graded series of ethanol. Hexamethyldisilazane (Sigma) was added, and the samples were dried overnight at RT. Granules were visualized on SEM as previously described.
Confocal laser scanning microscopy. Granules with seeded cells were fixed using 4% paraformaldehyde for 15 min and then washed twice with PBS. Triton X-100 0.1% was used, for 5 min, to permeabilize the cells, and the cells were then incubated in 1% bovine serum albumin at 37° C. for 30 min. After incubation, the staining of the F-actin filaments was performed using Alexa Fluor 594 Phalloidin (1:100, Molecular Probes A12379, Invitrogen) in 1% bovine serum albumin at RT for 20 min in dark. The samples were then washed twice with PBS. Cell nuclei were stained with a solution of Hoechst dye (1:1000, Sigma) in PBS at RT for 15 min in dark. Finally, the samples were washed twice with PBS, and one drop of Vectashield was added. The images were acquired with a Leica SP5 Confocal microscope, using a […] oil immersion objective. […]

S. aureus ATCC 25923 = conditions: cited from earlier work

## CN[C@H](CC(C)C)C(=O)N[C@H]1C(=O)N[C@@H](CC(N)=O)C(=O)N[C@H]2C(=O)N[C@H]3C(=O)N[C@H](C(=O)N[C@H](C(=O)O)c4cc(O)cc(O)c4-c4cc3ccc4O)[C@H](O)c3ccc(c(Cl)c3)Oc3cc2cc(c3O[C@@H]2O[C@H](CO)[C@@H](O)[C@H](O)[C@H]2O[C@H]2C[C@](C)(N)[C@H](O)[C@H](C)O2)Oc2ccc(cc2Cl)[C@H]1O [vancomycin]
MC3T3-E1 cells [1]; vancomycin released from heparinized granules, after 14 days of culture
  viability of osteoblast cells in presence of vancomycin: cells were able to remain viable; also recorded: did not affect the viability of MC3T3-E1 cells
MC3T3-E1 cells [1]; vancomycin released from heparinized nanoHA/collagen granules, 24 h of culture
  metabolic activity of MC3T3-E1 cells versus without vancomycin: no difference in the metabolic activity
MC3T3-E1 cells [1]; vancomycin released from heparinized nanoHA/collagen granules, after 14 days up to 21 days of culture
  metabolic activity of MC3T3-E1 cells: increased their metabolic activity
MC3T3-E1 cells [1]; vancomycin released from heparinized nanoHA/collagen granules, until 7 days of culture
  metabolic activity of MC3T3-E1 cells: decrease in metabolic activity
MC3T3-E1 cells [2]; 24 h and 4 days
  MC3T3-E1 cell morphology (confocal microscopy): more rounded morphology
MC3T3-E1 cells [2]; after 7 days
  MC3T3-E1 cell morphology (confocal microscopy): started to elongate on the surface of the material
MC3T3-E1 cells [2]; after 14 days
  MC3T3-E1 cell morphology (confocal microscopy): well spread, covering the entire surface
S. aureus ATCC 25923
  vancomycin minimum inhibitory concentration (MIC): 1 µg/mL
